Laboratory results from US20180206495A1, “SUBSTITUTED ARYL AND HETEROARYL CARBOXYLIC ACID HYDRAZIDES OR SALTS THEREOF AND USE THEREOF TO INCREASE STRESS TOLERANCE IN PLANTS” (BAYER CROPSCIENCE AKTIENGESELLSCHAFT, priority 2015, published 2018).

Legend:
Brassica napus = assay: In vivo analyses Part B: drought stress, spray application, appearance vs stressed control in categories, Brassica napus; set-up: key: 0: no positive effect; +: slight positive effect; ++: clear positive effect; +++: strong positive effect
Method: (§1) Seeds of monocotyledonous and dicotyledonous crop plants were sown in sandy loam in plastic pots, covered with soil or sand and cultivated in a greenhouse under good growth conditions. The test plants are treated at the early leaf stage (BBCH10-BBCH13). To assure uniform water supply before commencement of stress, the potted plants were supplied with water by dam irrigation prior to substance application. The inventive compounds were first formulated as wettable powders (WP) or dissolved in a solvent mixture. The further dilution was effected with water supplemented with 0.2% wetting agent (e.g. agrotin). The finished spray liquor was sprayed onto the green parts of the plant at an equivalent water application rate of 600 l/ha. Substance application was followed immediately by stress treatment of the plants. Drought stress was induced by gradual drying out under the following conditions: “Day”: 14 hours with illumination at ˜26-30° C. “Night”: 10 hours without illumination at ˜18-20° C. The duration of the respective stress phases was guided mainly by the condition of the stressed control plants. It was ended (by re-irrigating and transfer to a greenhouse with good growth conditions) as soon as irreversible damage was observed on the stressed control plants. The end of the stress phase was followed by an about 4-7-day recovery phase, during which the plants were once again kept under good growth conditions in a greenhouse. The duration of the recovery phase was guided mainly by when the trial plants had attained a state which enabled visual scoring of potential effects, and was therefore variable. Once this juncture had been reached, the appearance of the plants treated with test substances was recorded in comparison to the stressed control plants by the following categories: • 0 no positive effect • + slight positive effect • ++ clear positive effect • +++ strong positive effect In order to rule out any influence on the effects observed by any fungicidal or insecticidal action of the test compounds, it was additionally ensured that the tests proceeded without fungal infection or insect infestation. The values reported in tables B-1 and B-2 below are mean values of the results from at least three repeats. Effects of selected compounds of the general formula (I) under drought stress according to the following tables B-1 and B-2: […]

Triticum aestivum = assay: In vivo analyses Part B: drought stress, spray application, appearance vs stressed control in categories, Triticum aestivum; set-up: key: 0: no positive effect; +: slight positive effect; ++: clear positive effect; +++: strong positive effect
Method: as §1

| Compound | Effect (BRSNS) (Brassica napus; dosage 250 g/ha) | Effect (TRZAS) (Triticum aestivum; dosage 250 g/ha) | other results |
| --- | --- | --- | --- |
| CN(C)N(Cc1c(F)cccc1F)C(=O)c1ccccc1C(F)(F)F [A1-17] |  |  | Effect (BRSNS) (Brassica napus; dosage 25 g/ha): ++ |
| CN(C)N(Cc1ncccn1)C(=O)c1ccccc1C(F)(F)F [A1-27] | ++ |  |  |
| CN(C)N(Cc1cccc(C#N)c1)C(=O)c1ccccc1C(F)(F)F [A1-62] |  |  | Effect (BRSNS) (Brassica napus; dosage 25 g/ha): ++ |
| CN(C)N(Cc1ccc(C#N)cc1)C(=O)c1ccccc1C(F)(F)F [A1-63] | + |  |  |
| CN(C)N(Cc1ccccc1C(F)(F)F)C(=O)c1ccccc1C(F)(F)F [A1-81] |  | + | Effect (BRSNS) (Brassica napus; dosage 25 g/ha): + |
| CN(C)N(Cc1ccc(Cl)nc1)C(=O)c1ccccc1C(F)(F)F [A1-94, N-[(6-Chloropyridin-3-yl)methyl]-N′,N′-dimethyl-2-(trifluoromethyl)benzohydrazide] |  | + |  |
| CC(c1ccc(F)cc1)N(C(=O)c1ccccc1C(F)(F)F)N(C)C (stereo not shown) [A1-159] |  | + |  |
| COC(=O)c1ccccc1CN(C(=O)c1ccccc1C(F)(F)F)N(C)C [A1-603] | ++ |  |  |
| CN(C)N(Cc1cccnc1C#N)C(=O)c1ccccc1C(F)(F)F [A1-679] |  | + | Effect (BRSNS) (Brassica napus; dosage 25 g/ha): + |
| CCN(CC)N(Cc1cccc(Cl)c1Cl)C(=O)c1ccccc1C(F)(F)F [A2-4, N-(2,3-Dichlorobenzyl)-N′,N′-diethyl-2-(trifluoromethyl)benzohydrazide] |  | + |  |
| CCN(C)N(Cc1nccc(Cl)c1Cl)C(=O)c1ccccc1C(F)(F)F [A5-40] | + | + |  |
| CCN(C)N(Cc1ccccc1C#N)C(=O)c1ccccc1C(F)(F)F [A5-61] |  | + |  |
| COc1ccccc1C(=O)N(Cc1ccc(F)cc1F)N(C)C [A8-15] | + |  | Effect (TRZAS) (Triticum aestivum; dosage 25 g/ha): ++ |
| COc1ccccc1C(=O)N(Cc1ncc(C(F)(F)F)cc1Cl)N(C)C [A8-36] |  |  | Effect (TRZAS) (Triticum aestivum; dosage 25 g/ha): ++ |
| COc1ccccc1C(=O)N(Cc1ccc(Cl)nc1)N(C)C [A8-94] |  |  | Effect (TRZAS) (Triticum aestivum; dosage 25 g/ha): + |
| CN(C)N(Cc1cccc(Cl)c1)C(=O)c1ccccc1Cl [A10-2] |  | + | Effect (BRSNS) (Brassica napus; dosage 25 g/ha): ++ |
| CN(C)N(Cc1c(F)cccc1F)C(=O)c1ccccc1Cl [A10-17] | + |  |  |
| CN(C)N(Cc1nccc(Cl)c1Cl)C(=O)c1ccccc1Cl [A10-40] | ++ |  |  |
| CN(C)N(Cc1ccccc1C(F)(F)F)C(=O)c1ccccc1Cl [A10-81] |  | + |  |
| CN(C)N(Cc1ccc(Cl)nc1)C(=O)c1ccccc1Cl [A10-94] | + |  |  |
| CN(C)N(Cc1cccnc1C#N)C(=O)c1ccccc1Cl [A10-679] | ++ |  |  |

| Compound | Effect (BRSNS) (Brassica napus; dosage 250 g/ha) | Effect (TRZAS) (Triticum aestivum; dosage 250 g/ha) | other results |
| --- | --- | --- | --- |
| CN(C)N(Cc1ncc(C(F)(F)F)cc1Cl)C(=O)c1ccc(Cl)cc1Cl [A12-36] |  |  | Effect (BRSNS) (Brassica napus; dosage 100 g/ha): + |
| CN(C)N(Cc1ccc(Cl)nc1)C(=O)c1ccc(Cl)cc1Cl [A12-94] |  | + | Effect (BRSNS) (Brassica napus; dosage 25 g/ha): + |
| CN(C)N(Cc1ccc(Cl)cc1Cl)C(=O)c1ccc(F)cc1C(F)(F)F [A14-5] |  |  | Effect (TRZAS) (Triticum aestivum; dosage 25 g/ha): + |
| CN(C)N(Cc1ccc(C(F)(F)F)cc1Cl)C(=O)c1ccc(F)cc1C(F)(F)F [A14-91] | + |  | Effect (TRZAS) (Triticum aestivum; dosage 25 g/ha): + |
| CN(C)N(Cc1ccc(Cl)nc1Cl)C(=O)c1ccc(F)cc1C(F)(F)F [A14-99] | + |  | Effect (TRZAS) (Triticum aestivum; dosage 25 g/ha): + |
| CN(C)N(Cc1cc(Cl)c(Cl)cc1Cl)C(=O)c1ccc(F)cc1C(F)(F)F [A14-138] |  |  | Effect (BRSNS) (Brassica napus; dosage 25 g/ha): +; Effect (TRZAS) (Triticum aestivum; dosage 25 g/ha): + |
| CN(C)N(Cc1c(Cl)c(Cl)c(C(F)(F)F)c(Cl)c1Cl)C(=O)c1ccc(F)cc1C(F)(F)F [A14-680] | ++ |  |  |
| CN(C)N(Cc1ccccc1Cl)C(=O)c1ccccc1I [A36-1] | + |  |  |
| CN(C)N(Cc1c(Cl)cccc1Cl)C(=O)c1ccccc1I [A36-7] |  | + |  |
| CN(C)N(Cc1c(Cl)cc(Cl)cc1Cl)C(=O)c1ccccc1I [A36-10] |  | + |  |
| CN(C)N(Cc1ncccn1)C(=O)c1ccccc1I [A36-27] | + |  |  |
| CN(C)N(Cc1nccc(Cl)c1Cl)C(=O)c1ccccc1I [A36-40] |  | + |  |
| CN(C)N(Cc1ccc(C#N)cc1)C(=O)c1ccccc1I [A36-63] |  | + |  |
| CN(C)N(Cc1ccccc1C(F)(F)F)C(=O)c1ccccc1I [A36-81] |  | + |  |
| CN(C1CCCCC1)N(Cc1ccccn1)C(=O)c1ccccc1C(F)(F)F [A47-21] |  | + |  |
| CN(C)N(Cc1ncc(C(F)(F)F)cc1Cl)C(=O)c1ccc(C#N)cc1C(F)(F)F [A48-36] |  |  | Effect (BRSNS) (Brassica napus; dosage 25 g/ha): ++ |
| Cc1ccc(C(=O)N(Cc2ncc(C(F)(F)F)cc2Cl)N(C)C)c(C(F)(F)F)c1 [A50-36, N-[3-Chloro-5-(trifluoromethyl)pyridin-2-yl-methyl]-N′,N′-dimethyl-2-(trifluoromethyl)-4-methylbenzohydrazide] |  |  | Effect (BRSNS) (Brassica napus; dosage 25 g/ha): + |
| Cc1ccc(C(=O)N(Cc2ccccc2C#N)N(C)C)c(C(F)(F)F)c1 [A50-61] |  |  | Effect (BRSNS) (Brassica napus; dosage 25 g/ha): + |
| CN(C)N(Cc1ccccc1Cl)C(=O)c1ccc(Cl)cc1C(F)(F)F [A51-1] |  | + |  |
| CN(C)N(Cc1ccc(Cl)cc1Cl)C(=O)c1cnccc1C(F)(F)F [B1-5] | +++ |  |  |
| CN(C)N(Cc1c(Cl)cc(Cl)cc1Cl)C(=O)c1cnccc1C(F)(F)F [B1-10] | +++ |  |  |

| Compound | Effect (BRSNS) (Brassica napus; dosage 250 g/ha) | Effect (TRZAS) (Triticum aestivum; dosage 250 g/ha) | other results |
| --- | --- | --- | --- |
| CN(C)N(Cc1nccc(Cl)c1Cl)C(=O)c1cnccc1C(F)(F)F [B1-40] | + |  |  |
| CN(C)N(Cc1ccccc1C#N)C(=O)c1cnccc1C(F)(F)F [B1-61] | ++ |  |  |
| CN(C)N(Cc1ccc(C#N)cc1)C(=O)c1cnccc1C(F)(F)F [B1-63] | +++ |  |  |
| CN(C)N(Cc1ccc(Cl)nc1)C(=O)c1cnccc1C(F)(F)F [B1-94] |  | + |  |
| CN(C)N(Cc1cccnc1C#N)C(=O)c1cnccc1C(F)(F)F [B1-679] | ++ |  |  |
| CCN(CC)N(Cc1ccccn1)C(=O)c1cnccc1C(F)(F)F [B2-21, N′,N′-Diethyl-N-(pyridin-2-ylmethyl)-4-(trifluoromethyl)nicotinohydrazide] |  | + |  |
| CN(C)N(Cc1ccccc1Cl)C(=O)c1ccc(C(F)(F)F)nc1 [B5-1] |  | + |  |
| CN(C)N(Cc1ccccn1)C(=O)c1ccc(C(F)(F)F)nc1 [B5-21] | + |  |  |
| CN(C)N(Cc1ccc(Cl)nc1)C(=O)c1ccc(C(F)(F)F)nc1 [B5-94] |  |  | Effect (TRZAS) (Triticum aestivum; dosage 25 g/ha): + |
| CN(C)N(Cc1ccccc1Cl)C(=O)c1ccc(C(F)F)nc1 [B6-1] |  |  | Effect (TRZAS) (Triticum aestivum; dosage 25 g/ha): ++ |
| CN(C)N(Cc1ccccn1)C(=O)c1ccc(C(F)F)nc1 [B6-21] |  | + |  |
| CN(C)N(Cc1ccccc1C#N)C(=O)c1ccc(C(F)F)nc1 [B6-61] |  | + |  |
| CCN(C)N(Cc1nccc(Cl)c1Cl)C(=O)c1cnccc1C(F)(F)F [B17-40] |  | + |  |
| CCN(C)N(Cc1ccccc1C#N)C(=O)c1cnccc1C(F)(F)F [B17-61] | + |  |  |
| CN(C1CCCCC1)N(Cc1ccccc1Cl)C(=O)c1cnccc1C(F)(F)F [B18-1] |  |  | Effect (TRZAS) (Triticum aestivum; dosage 25 g/ha): ++ |
| CN(C1CCCCC1)N(Cc1ccccn1)C(=O)c1cnccc1C(F)(F)F [B18-21] |  |  | Effect (TRZAS) (Triticum aestivum; dosage 25 g/ha): + |
| CN(C)N(Cc1ccccn1)C(=O)c1cncnc1C(F)(F)F [E1-21] |  |  | Effect (TRZAS) (Triticum aestivum; dosage 25 g/ha): + |
| CN(C)N(Cc1ccc(Cl)nc1)C(=O)c1cncnc1C(F)(F)F [E1-94] |  | + |  |
| CN(C)N(Cc1ccccc1C#N)C(=O)c1cncnc1C(F)(F)Cl [E3-61] |  | + |  |
